For one molecule, IC50 results are on record in BindingDB's records for doi:10.1021/jm990229t (Ariad Pharmaceuticals, 1999).

In assay [1] the target is T1, Tyrosine-protein kinase ZAP-70 (Homo sapiens, UniProt P43403).
T1 sequence (P43403 whole entry): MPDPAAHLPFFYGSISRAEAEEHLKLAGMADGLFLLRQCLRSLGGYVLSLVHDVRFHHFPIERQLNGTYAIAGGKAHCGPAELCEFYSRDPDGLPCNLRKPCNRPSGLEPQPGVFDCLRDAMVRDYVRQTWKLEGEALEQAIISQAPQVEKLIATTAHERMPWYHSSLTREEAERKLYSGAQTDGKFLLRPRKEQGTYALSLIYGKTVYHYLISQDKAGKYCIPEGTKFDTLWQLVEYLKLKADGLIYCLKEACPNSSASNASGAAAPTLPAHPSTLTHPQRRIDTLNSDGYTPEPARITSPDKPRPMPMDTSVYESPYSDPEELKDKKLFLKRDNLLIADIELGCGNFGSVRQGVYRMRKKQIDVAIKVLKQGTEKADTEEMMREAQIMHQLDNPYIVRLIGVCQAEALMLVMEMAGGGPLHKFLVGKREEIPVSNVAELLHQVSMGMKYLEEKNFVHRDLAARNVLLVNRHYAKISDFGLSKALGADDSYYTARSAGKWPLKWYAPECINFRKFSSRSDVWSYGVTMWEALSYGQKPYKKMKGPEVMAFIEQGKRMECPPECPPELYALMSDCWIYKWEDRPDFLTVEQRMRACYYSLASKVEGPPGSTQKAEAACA
In words: Competitive Binding Assay. Particulars: pH 7.4; 22 °C. The protocol:
(§1) Fluorescence polarization competitive binding assays were used to measure the IC50s of compounds binding to the different SH2 domains. The difference in polarization values of fluorescein-conjugated peptide reflects the bound and unbound state of the probe. IC50s were calculated based on the binding of the fluorescein-conjugated peptide to the protein with compound addition relative to vehicle-alone control samples.

Assay [2] deals with Proto-oncogene tyrosine-protein kinase Src (Homo sapiens, UniProt P12931). In words: Competitive Binding Assay. Particulars: pH 7.4; 22 °C. On the procedure: as §1
Chain of Proto-oncogene tyrosine-protein kinase Src (P12931 2-536 limits assumed): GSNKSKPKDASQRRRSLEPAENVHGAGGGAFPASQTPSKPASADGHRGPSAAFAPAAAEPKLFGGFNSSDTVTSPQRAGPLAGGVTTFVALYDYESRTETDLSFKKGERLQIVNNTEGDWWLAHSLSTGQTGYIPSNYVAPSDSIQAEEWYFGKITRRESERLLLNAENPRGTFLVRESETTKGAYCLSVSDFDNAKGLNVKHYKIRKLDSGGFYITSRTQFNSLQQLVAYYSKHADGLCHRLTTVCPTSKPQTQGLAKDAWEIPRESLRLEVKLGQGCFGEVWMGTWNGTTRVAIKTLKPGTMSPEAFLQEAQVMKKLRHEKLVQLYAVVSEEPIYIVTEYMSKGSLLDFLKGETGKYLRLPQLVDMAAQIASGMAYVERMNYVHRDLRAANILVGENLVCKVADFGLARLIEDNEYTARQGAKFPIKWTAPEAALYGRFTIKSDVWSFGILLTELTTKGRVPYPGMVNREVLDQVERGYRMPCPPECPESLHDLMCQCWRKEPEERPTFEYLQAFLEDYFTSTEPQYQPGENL

`CC(=O)N[C@@H](Cc1ccc(OP(=O)(O)O)cc1)C(=O)N[C@@H](CCC(N)=O)c1nc(Cc2c(C)cc(C)cc2C)no1` [4-[(2S)-2-{[(1S)-3-carbamoyl-1-{3-[(2,4,6-trimethylphenyl)methyl]-1,2,4-oxadiazol-5-yl}propyl]carbamoyl}-2-acetamidoethyl]phenoxyphosphonic acid]: the IC50 in assay [1] is > 500 µM; in assay [2], 312 µM.
